Assay results as given in ChEMBL document CHEMBL1146822, “Adenine derived inhibitors of the molecular chaperone HSP90-SAR explained through multiple X-ray structures” (Bioorg Med Chem Lett, 2004).

System: HCT-116
Experiment: Cellular activity against human colon tumor cell line, HCT116
Format: functional

Row | Structure (SMILES) | GI50 [µM]
1 | C#CCCCn1c(Cc2cc(OC)c(OC)c(OC)c2Cl)nc2c(N)nc(F)nc21 | 3.9
2 | C#CCCCn1c(Cc2cc(OC)ccc2OC)nc2c(N)nc(F)nc21 | 3.3
3 | CCCCn1c(Cc2cc(OC)ccc2OC)nc2c(N)nc(F)nc21 | 3.4
